Usually Dmax stands for the greatest extent of degradation seen. One may read the DC50 as the midpoint of the concentration-degradation curve.

This assay has as its target T1, BRM (Homo sapiens, UniProt P51531).
T1 construct: In-Cell Western Screen of BRM Degradation in SW1573 Cells; endogenous in cells; host or cells: SW1573
Briefly: In-cell Western screen of BRM degradation in SW1573 cells (Dmax and DC50). It counts as cell-based. In a few lines:
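SW1573 cells were treated with compound overnight (18-20 h; final DMSO 0.1%), then fixed in 4% PFA, permeabilized with Triton X-100 and blocked. BRM was detected by in-cell Western using 800 nm anti-rabbit and 680 nm anti-mouse secondaries, and Dmax and DC50 were derived from the LI-COR Odyssey signal.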

Setting [1] is: target protein degradation, read-out: BRM DC50.
Where [2] appears, read: BRM degradation, SW1573 cells, read-out: DC50.
Setting [3] is: BRM degradation, SW1573 cells, when tested at the top concentration of between 0.3 and 10 μM, read-out: Dmax (%) (% degraded).
Setting [4] is: BRM degradation, SW1573 cells, read-out: Dmax (% degraded).
The mark [5] stands for this setting: BRM degradation, SW1573 cells, Table 2D, read-out: **Dmax (%) (% degraded).
The mark [6] stands for this setting: BRM degradation, SW1573 cells, Table 2D, read-out: *DC50.

Like-named read-outs stand apart in the source and are kept apart here.

T1 sequence (P51531 whole entry): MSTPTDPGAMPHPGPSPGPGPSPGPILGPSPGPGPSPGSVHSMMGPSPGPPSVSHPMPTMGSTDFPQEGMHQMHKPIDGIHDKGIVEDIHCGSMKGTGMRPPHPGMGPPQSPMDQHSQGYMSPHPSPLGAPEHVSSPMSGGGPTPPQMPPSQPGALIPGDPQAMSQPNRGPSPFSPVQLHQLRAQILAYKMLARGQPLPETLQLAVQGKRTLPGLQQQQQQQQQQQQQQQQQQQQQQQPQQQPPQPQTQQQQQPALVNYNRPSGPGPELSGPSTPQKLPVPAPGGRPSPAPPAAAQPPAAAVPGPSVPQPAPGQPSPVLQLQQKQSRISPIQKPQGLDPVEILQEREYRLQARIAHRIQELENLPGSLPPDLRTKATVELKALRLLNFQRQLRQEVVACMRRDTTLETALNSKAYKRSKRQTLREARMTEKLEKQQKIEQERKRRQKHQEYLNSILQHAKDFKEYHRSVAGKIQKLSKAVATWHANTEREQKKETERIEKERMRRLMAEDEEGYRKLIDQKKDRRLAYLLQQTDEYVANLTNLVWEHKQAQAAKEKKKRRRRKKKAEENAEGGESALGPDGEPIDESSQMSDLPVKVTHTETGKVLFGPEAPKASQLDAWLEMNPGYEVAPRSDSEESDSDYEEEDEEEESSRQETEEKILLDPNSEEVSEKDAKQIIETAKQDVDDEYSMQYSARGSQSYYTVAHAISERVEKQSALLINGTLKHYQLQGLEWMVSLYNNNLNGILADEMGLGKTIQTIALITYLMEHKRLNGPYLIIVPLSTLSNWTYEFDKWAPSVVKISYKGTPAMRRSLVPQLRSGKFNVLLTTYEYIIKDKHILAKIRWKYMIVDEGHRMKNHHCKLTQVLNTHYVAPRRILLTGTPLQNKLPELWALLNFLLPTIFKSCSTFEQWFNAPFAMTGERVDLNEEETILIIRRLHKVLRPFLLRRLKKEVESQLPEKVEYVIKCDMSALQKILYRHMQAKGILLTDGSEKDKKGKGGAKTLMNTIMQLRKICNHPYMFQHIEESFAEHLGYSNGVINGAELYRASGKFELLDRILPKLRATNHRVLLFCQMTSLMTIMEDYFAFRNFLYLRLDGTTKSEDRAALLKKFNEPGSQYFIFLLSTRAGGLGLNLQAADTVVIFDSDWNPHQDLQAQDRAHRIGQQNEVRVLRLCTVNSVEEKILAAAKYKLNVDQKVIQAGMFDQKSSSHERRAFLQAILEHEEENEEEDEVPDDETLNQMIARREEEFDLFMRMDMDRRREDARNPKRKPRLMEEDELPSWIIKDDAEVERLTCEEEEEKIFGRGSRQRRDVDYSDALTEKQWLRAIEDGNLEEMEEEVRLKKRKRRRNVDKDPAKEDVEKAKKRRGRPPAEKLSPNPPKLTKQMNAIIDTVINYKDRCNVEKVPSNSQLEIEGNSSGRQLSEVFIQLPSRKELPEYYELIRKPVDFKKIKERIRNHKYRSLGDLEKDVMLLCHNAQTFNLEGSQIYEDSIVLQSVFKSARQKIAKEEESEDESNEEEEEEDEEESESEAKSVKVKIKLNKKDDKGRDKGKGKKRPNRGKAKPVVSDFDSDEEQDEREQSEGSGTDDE

With `Cc1ncsc1-c1ccc([C@H](C)NC(=O)[C@@H]2C[C@@H](O)CN2C(=O)[C@H](c2cc(OCCC3CCN(C(=O)[C@H]4C[C@@H](CN5CCC(n6cc(-c7cc(-c8ccccc8O)nnc7N)cn6)CC5)C4)CC3)no2)C(C)C)cc1` [compound 465, (2S,4R)-1-((S)-2-(3-(2-(1-((1s,3R)-3-((4-(4-(3-amino-6-(2-hydroxyphenyl)pyridazin-4-yl)-1H-pyrazol-1-yl)piperidin-1-yl)methyl)cyclobutane-1-carbonyl)piperidin-4-yl)ethoxy)isoxazol-5-yl)-3-methylbutanoyl)-4-hydroxy-N-((S)-1-(4-(4-methylthiazol-5-yl)phenyl)ethyl)pyrrolidine-2-carboxamide], for the setting “SW1573, % degraded, when tested at the top concentration of between 0.3 and 10 μM, read-out: BRM Dmax (%)”, the Dmax is more than 75%. Besides, the DC50 under setting [1] is less than 2.5 nM.
Regarding `Cc1ncsc1-c1ccc([C@H](C)NC(=O)[C@@H]2C[C@@H](O)CN2C(=O)[C@@H](c2cc(OCCOc3ccc(C(C)n4cc(-c5cc(-c6ccccc6O)nnc5N)cn4)cn3)no2)C(C)C)cc1` (stereo partly drawn) [compound 82, (2S,4R)-1-((2R)-2-(3-(2-((5-(1-(4-(3-amino-6-(2-hydroxyphenyl)pyridazin-4-yl)-1H-pyrazol-1-yl)ethyl)pyridin-2-yl)oxy)ethoxy)isoxazol-5-yl)-3-methylbutanoyl)-4-hydroxy-N-((S)-1-(4-(4-methylthiazol-5-yl)phenyl)ethyl)pyrrolidine-2-carboxamide], the 50% degradation concentration (DC50) under setting [2] was less than 2.5 nM. In addition, the Dmax under setting [3] is more than 75%.
The corresponding values for `Cc1ncsc1-c1ccc(CNC(=O)[C@@H]2C[C@@H](O)CN2C(=O)[C@@H](c2cc(OCCOCCOCCOc3cc(N4C5CCC4CN(c4cc(-c6ccccc6O)nnc4N)C5)ccn3)no2)C(C)C)cc1` [compound 28, (2S,4R)-1-[(2R)-2-[3-[2-(2-[2-[(4-[3-[3-amino-6-(2-hydroxyphenyl)pyridazin-4-yl]-3,8-diazabicyclo[3.2.1]octan-8-yl]pyridin-2-yl)oxy]ethoxy]ethoxy)ethoxy]-1,2-oxazol-5-yl]-3-methylbutanoyl]-4-hydroxy-N-[[4-(4-methyl-1,3-thiazol-5-yl)phenyl]methyl]pyrrolidine-2-carboxamide] are less than 2.5 nM and more than 75%.
Take `CC(C)[C@@H](C(=O)N1C[C@H](O)C[C@H]1C(=O)N[C@@H](C)c1ccc(-n2ccccc2=O)cc1)c1cc(OCCN2CCC(O[C@H]3C[C@H](Oc4cc(N5C6CCC5CN(c5cc(-c7ccccc7O)nnc5N)C6)ccn4)C3)CC2)no1` [compound 373, (2S,4R)-1-((2R)-2-(3-(2-(4-((1r,3R)-3-((4-(3-(3-amino-6-(2-hydroxyphenyl)pyridazin-4-yl)-3,8-diazabicyclo[3.2.1]octan-8-yl)pyridin-2-yl)oxy)cyclobutoxy)piperidin-1-yl)ethoxy)isoxazol-5-yl)-3-methylbutanoyl)-4-hydroxy-N-((S)-1-(4-(2-oxopyridin-1(2H)-yl)phenyl)ethyl)pyrrolidine-2-carboxamide]: the 50% degradation concentration (DC50) under setting [1] is more than 30 nM.
With `Cc1ncsc1-c1ccc([C@@H](CCO)NC(=O)[C@@H]2C[C@@H](O)CN2C(=O)[C@@H](c2cc(N3CCC(CN4CCC(O[C@H]5C[C@H](Oc6cc(N7C8CCC7CN(c7cc(-c9ccccc9O)nnc7N)C8)ccn6)C5)CC4)CC3)no2)C(C)C)cc1` [compound 662, (2S,4R)-1-((2R)-2-(3-(4-((4-((1r,3r)-3-((4-(3-(3-amino-6-(2-hydroxyphenyl)pyridazin-4-yl)-3,8-diazabicyclo[3.2.1]octan-8-yl)pyridin-2-yl)oxy)cyclobutoxy)piperidin-1-yl)methyl)piperidin-1-yl)isoxazol-5-yl)-3-methylbutanoyl)-4-hydroxy-N-((R)-3-hydroxy-1-(4-(4-methylthiazol-5-yl)phenyl)propyl)pyrrolidine-2-carboxamide], the DC50 under setting [2] was in the range of 2.5 to 10 nM. The greatest degradation seen (Dmax) under setting [4] was more than 75%.
Take `Cc1ncsc1-c1ncc([C@H](C)NC(=O)[C@@H]2C[C@@H](O)CN2C(=O)C(c2cc(OCCN3CCC(O[C@H]4C[C@H](Oc5cc(N6C7CCC6CN(c6cc(-c8ccccc8O)nnc6N)C7)ccn5)C4)CC3)no2)C(C)C)cc1F` (stereo partly drawn) [compound 500, (2S,4R)-1-(2-(3-(2-(4-((1r,3r)-3-((4-(3-(3-amino-6-(2-hydroxyphenyl)pyridazin-4-yl)-3,8-diazabicyclo[3.2.1]octan-8-yl)pyridin-2-yl)oxy)cyclobutoxy)piperidin-1-yl)ethoxy)isoxazol-5-yl)-3-methylbutanoyl)-N-((S)-1-(5-fluoro-6-(4-methylthiazol-5-yl)pyridin-3-yl)ethyl)-4-hydroxypyrrolidine-2-carboxamide]: the DC50 (BRM degradation, read-out: BRM DC50) is more than 30 nM.
Consider `CC(C)[C@@H](C(=O)N1C[C@H](O)C[C@H]1C(=O)N[C@@H](C)c1ccc(-c2nccn2C)cc1)c1cc(OCCN2CCN(CCOc3cc(N4C5CCC4CN(c4cc(-c6ccccc6O)nnc4N)C5)ccn3)CC2)no1` [compound 115, (2S,4R)-1-((2R)-2-(3-(2-(4-(2-((4-(3-(3-amino-6-(2-hydroxyphenyl)pyridazin-4-yl)-3,8-diazabicyclo[3.2.1]octan-8-yl)pyridin-2-yl)oxy)ethyl)piperazin-1-yl)ethoxy)isoxazol-5-yl)-3-methylbutanoyl)-4-hydroxy-N-((S)-1-(4-(1-methyl-1H-imidazol-2-yl)phenyl)ethyl)pyrrolidine-2-carboxamide], for which the DC50 under setting [2] was more than 30 nM. Besides, the greatest degradation seen (Dmax) under setting [3] was in the range of 50 to 75%.
Turning to `Cc1nccn1-c1ccc([C@H](C)NC(=O)[C@@H]2C[C@@H](O)CN2C(=O)[C@H](c2cc(N3CCC(CN4CCC(O[C@H]5C[C@H](C#C[C@@H](C)n6cc(-c7cc(-c8ccccc8O)nnc7N)cn6)C5)CC4)CC3)no2)C(C)C)cc1` (single isomer, unassigned) [compound 637], the 50% degradation concentration (DC50) under setting [2] lay within 2.5 to 10 nM. The Dmax under setting [4] is more than 75%.
With `CC(C)[C@H](C(=O)N1C[C@H](O)C[C@H]1C(=O)N[C@@H](C)c1ccc(-c2c(F)cnn2C)cc1)c1cc(OCCN2CCN(CCOc3cc(N4C5CCC4CN(c4cc(-c6ccccc6O)nnc4N)C5)ccn3)CC2)no1` [compound 409, (2S,4R)-1-((2S)-2-(3-(2-(4-(2-((4-(3-(3-amino-6-(2-hydroxyphenyl)pyridazin-4-yl)-3,8-diazabicyclo[3.2.1]octan-8-yl)pyridin-2-yl)oxy)ethyl)piperazin-1-yl)ethoxy)isoxazol-5-yl)-3-methylbutanoyl)-N-((S)-1-(4-(4-fluoro-1-methyl-1H-pyrazol-5-yl)phenyl)ethyl)-4-hydroxypyrrolidine-2-carboxamide], the 50% degradation concentration (DC50) (degradation of BRM, read-out: BRM DC50) is more than 30 nM.
Regarding `Cc1ncsc1-c1ccc(C2(NC(=O)[C@@H]3C[C@@H](O)CN3C(=O)[C@H](c3cc(OCCN4CCN(CCOc5cc(N6C7CCC6CN(c6cc(-c8ccccc8O)nnc6N)C7)ccn5)CC4)no3)C(C)C)CN(C)C2)cc1` [compound 228, (2S,4R)-1-((2S)-2-(3-(2-(4-(2-((4-(3-(3-amino-6-(2-hydroxyphenyl)pyridazin-4-yl)-3,8-diazabicyclo[3.2.1]octan-8-yl)pyridin-2-yl)oxy)ethyl)piperazin-1-yl)ethoxy)isoxazol-5-yl)-3-methylbutanoyl)-4-hydroxy-N-(1-methyl-3-(4-(4-methylthiazol-5-yl)phenyl)azetidin-3-yl)pyrrolidine-2-carboxamide], the half-maximal degradation concentration (DC50) under setting [2] was more than 30 nM.
On the same count and under the same terms, to `Cc1ncsc1-c1ccc([C@H](C)NC(=O)[C@@H]2C[C@@H](O)CN2C(=O)[C@H](c2cc(N3CCC4(CCN(CC5CCN(C[C@H]6C[C@H](Oc7cc(N8C9CCC8CN(c8cc(-c%10ccccc%10O)nnc8N)C9)ccn7)C6)CC5)CC4)CC3)no2)C(C)C)cc1` [compound 688, (2S,4R)-1-((2S)-2-(3-(9-((1-(((1r,3r)-3-((4-(3-(3-amino-6-(2-hydroxyphenyl)pyridazin-4-yl)-3,8-diazabicyclo[3.2.1]octan-8-yl)pyridin-2-yl)oxy)cyclobutyl)methyl)piperidin-4-yl)methyl)-3,9-diazaspiro[5.5]undecan-3-yl)isoxazol-5-yl)-3-methylbutanoyl)-4-hydroxy-N-((S)-1-(4-(4-methylthiazol-5-yl)phenyl)ethyl)pyrrolidine-2-carboxamide] belongs more than 30 nM.
As for `Cc1ncsc1-c1ccc([C@H](C)NC(=O)[C@@H]2C[C@@H](O)CN2C(=O)[C@@H](c2cc(N3CCC(CN4CCC([C@@H](C)n5cc(-c6cc(-c7ccccc7O)nnc6N)cn5)CC4)CC3)no2)C(C)C)cc1` (single isomer, unassigned) [compound 574], the Dmax under setting [5] is more than 75%. Also, the DC50 under setting [6] was less than 2.5 nM.
In the same order, the values of `Cc1ncsc1-c1ccc([C@H](C)NC(=O)[C@@H]2C[C@@H](O)CN2C(=O)[C@H](c2cc(OCC[C@H]3CCN(C[C@H]4C[C@H](Oc5cc(N6C7CCC6CN(c6cc(-c8ccccc8O)nnc6N)C7)ccn5)C4)C[C@@H]3C)no2)C(C)C)cc1` (racemic) [compound 578, (2S,4R)-1-((2S)-2-(3-(2-((3R,4R)-1-(((1r,3R)-3-((4-(3-(3-amino-6-(2-hydroxyphenyl)pyridazin-4-yl)-3,8-diazabicyclo[3.2.1]octan-8-yl)pyridin-2-yl)oxy)cyclobutyl)methyl)-3-methylpiperidin-4-yl)ethoxy)isoxazol-5-yl)-3-methylbutanoyl)-4-hydroxy-N-((S)-1-(4-(4-methylthiazol-5-yl)phenyl)ethyl)pyrrolidine-2-carboxamide] are more than 75% and less than 2.5 nM.

(Values after US12539292B2, “BRM targeting compounds and associated methods of use” (Arvinas Operations, Inc., priority 2018, dated 2026).)
